Laboratory results published in US4684664A, “Derivatives of β-(4-isocyano-1,2,3,4-diepoxycyclopentyl) acrylic acid” (Kureha Kagaku Kogyo Kabushiki Kaisha, priority 1984, dated 1987).
Values after ≈ are worked out from the molar mass of the structure shown.

How the values were obtained:
[1] = system: Staphylococcus aureus MS 353; experiment: Antibacterial activity, agar-dilution MIC, organism No. 3; assay type: cell-based; details: Staphylococcus aureus, MS353; Organism No. 3, bouillon-agar; read-out: Minimum Inhibitory Concentration
Procedure, shortened: (§1)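 Minimum inhibitory concentration determined on solid bouillon agar by the agar-dilution technique, with values stated as μg/ml.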

[2] = system: Streptococcus pyogenes IFO 3340; experiment: Antibacterial activity, agar-dilution MIC, organism No. 26; assay type: cell-based; details: Streptococcus pyogenes, IFO3340; Organism No. 26, bouillon-agar; read-out: Minimum Inhibitory Concentration
Procedure, shortened: as §1

[3] = system: Proteus morganii IFO 3848; experiment: Antibacterial activity, agar-dilution MIC, organism No. 18; assay type: cell-based; details: Morganella morganii, IFO3848; Organism No. 18, bouillon-agar; read-out: Minimum Inhibitory Concentration
Procedure, shortened: as §1

[4] = system: Enterobacter aerogenes ATCC 13048; experiment: Antibacterial activity, agar-dilution MIC, organism No. 23; assay type: cell-based; details: Klebsiella aerogenes, ATCC13048; Organism No. 23, bouillon-agar; read-out: Minimum Inhibitory Concentration
Procedure, shortened: as §1

[5] = system: Candida albicans IAM 4905; experiment: Antifungal activity, agar-dilution MIC, organism No. 29; assay type: cell-based; details: Candida albicans, IAM4905; Organism No. 29, bouillon-agar; read-out: Minimum Inhibitory Concentration
Procedure, shortened: as §1

[6] = system: Pseudomonas aeruginosa NCTC 10490; experiment: Antibacterial activity, agar-dilution MIC, organism No. 16; assay type: cell-based; details: Pseudomonas aeruginosa, NCTC10490; Organism No. 16, bouillon-agar; read-out: Minimum Inhibitory Concentration
Procedure, shortened: as §1

[7] = system: Klebsiella pneumoniae PCI-602; experiment: Antibacterial activity, agar-dilution MIC, organism No. 7; assay type: cell-based; details: Klebsiella pneumoniae, PCI602; Organism No. 7, bouillon-agar; read-out: Minimum Inhibitory Concentration
Procedure, shortened: as §1

[8] = system: Staphylococcus aureus Terajima; experiment: Antibacterial activity, agar-dilution MIC, organism No. 2; assay type: cell-based; details: Staphylococcus aureus; Organism No. 2, bouillon-agar; read-out: Minimum Inhibitory Concentration
Procedure, shortened: as §1

Enterobacter cloacae 963 = experiment: Antibacterial activity, agar-dilution MIC, organism No. 24; assay type: cell-based; details: Enterobacter cloacae, 963; Organism No. 24, bouillon-agar; read-out: Minimum Inhibitory Concentration
Procedure, shortened: as §1

[9] = system: Micrococcus luteus ATCC 9341; experiment: Antibacterial activity, agar-dilution MIC, organism No. 25; assay type: cell-based; details: Micrococcus luteus, ATCC9341; Organism No. 25, bouillon-agar; read-out: Minimum Inhibitory Concentration
Procedure, shortened: as §1

[10] = system: Proteus rettgeri IFO 3850; experiment: Antibacterial activity, agar-dilution MIC, organism No. 22; assay type: cell-based; details: Providencia rettgeri, IFO3850; Organism No. 22, bouillon-agar; read-out: Minimum Inhibitory Concentration
Procedure, shortened: as §1

[11] = system: Pseudomonas aeruginosa PAO 1; experiment: Antibacterial activity, agar-dilution MIC, organism No. 17; assay type: cell-based; details: Pseudomonas aeruginosa, PAO1; Organism No. 17, bouillon-agar; read-out: Minimum Inhibitory Concentration
Procedure, shortened: as §1

Salmonella typhi 901 = experiment: Antibacterial activity, agar-dilution MIC, organism No. 9; assay type: cell-based; details: Salmonella enterica, TYPHI, read-out: Minimum Inhibitory Concentration
Procedure, shortened: as §1

[12] = system: Proteus mirabilis IFO 3849; experiment: Antibacterial activity, agar-dilution MIC, organism No. 19; assay type: cell-based; details: Proteus mirabilis, IFO3849; Organism No. 19, bouillon-agar; read-out: Minimum Inhibitory Concentration
Procedure, shortened: as §1

[13] = system: Aspergillus niger IFO 6342; experiment: Antifungal activity, agar-dilution MIC, organism No. 30; assay type: cell-based; details: Aspergillus niger, IFO6342; Organism No. 30, bouillon-agar; read-out: Minimum Inhibitory Concentration
Procedure, shortened: as §1

[14] = system: Salmonella paratyphi-A 1015; experiment: Antibacterial activity, agar-dilution MIC, organism No. 10; assay type: cell-based; details: Salmonella enterica, PARATYPHI, read-out: Minimum Inhibitory Concentration
Procedure, shortened: as §1

[15] = system: Salmonella enteritidis G 14; experiment: Antibacterial activity, agar-dilution MIC, organism No. 12; assay type: cell-based; details: Salmonella enterica, ENTERITIDIS; Organism No. 12, bouillon-agar; read-out: Minimum Inhibitory Concentration
Procedure, shortened: as §1

[16] = system: Salmonella typhimurium IID 971; experiment: Antibacterial activity, agar-dilution MIC, organism No. 8; assay type: cell-based; details: Salmonella enterica; Organism No. 8, bouillon-agar; read-out: Minimum Inhibitory Concentration
Procedure, shortened: as §1

[17] = system: Staphylococcus aureus FDA 209PJc-1; experiment: Antibacterial activity, agar-dilution MIC, organism No. 1; assay type: cell-based; details: Staphylococcus aureus, FDA209PJC1; Organism No. 1, bouillon-agar; read-out: Minimum Inhibitory Concentration
Procedure, shortened: as §1

[18] = system: Serratia marcescens IAM 1184; experiment: Antibacterial activity, agar-dilution MIC, organism No. 13; assay type: cell-based; details: Serratia marcescens, IAM1184; Organism No. 13, bouillon-agar; read-out: Minimum Inhibitory Concentration
Procedure, shortened: as §1

[19] = system: Salmonella shottmuelleri 8006; experiment: Antibacterial activity, agar-dilution MIC, organism No. 11; assay type: cell-based; details: Salmonella, 8006; Organism No. 11, bouillon-agar; read-out: Minimum Inhibitory Concentration
Procedure, shortened: as §1

[20] = system: Streptococcus faecium IFO 3826; experiment: Antibacterial activity, agar-dilution MIC, organism No. 27; assay type: cell-based; details: Enterococcus faecium, IFO3826; Organism No. 27, bouillon-agar; read-out: Minimum Inhibitory Concentration
Procedure, shortened: as §1

Proteus vulgaris OX-19 = experiment: Antibacterial activity, agar-dilution MIC, organism No. 20; assay type: cell-based; details: Proteus vulgaris, OX19; Organism No. 20, bouillon-agar; read-out: Minimum Inhibitory Concentration
Procedure, shortened: as §1

[21] = system: Bacillus subtilis ATCC 6633; experiment: Antibacterial activity, agar-dilution MIC, organism No. 14; assay type: cell-based; details: Bacillus subtilis, ATCC6633; Organism No. 14, bouillon-agar; read-out: Minimum Inhibitory Concentration
Procedure, shortened: as §1

[22] = system: Mycoplasma pneumoniae IID817; experiment: Antimycoplasmal activity, MIC by phenol red colour change, organism No. 28; assay type: cell-based; details: Mycoplasma, IID817; Organism No. 28, PPLO broth + 1% glucose, 37° C.; read-out: Minimum Inhibitory Concentration (MIC)
Protocol: Mycoplasma pneumoniae IID817 was used as the test microorganism in a culture medium prepared by adding 1% of glucose to "PPLO broth (manufactured by Difco Co.) liquid culture medium" at 37° C. with phenol red as an indicator, thereby culturing the test microorganism.

[23] = Stability in a non-solvent state; assay type: physicochemical
Proteus vulgaris HX-19 = experiment: Antibacterial activity, agar-dilution MIC, organism No. 21; assay type: cell-based; details: Proteus vulgaris, HX19; Organism No. 21, bouillon-agar; read-out: Minimum Inhibitory Concentration
Procedure, shortened: as §1

[24] = system: Streptococcus pyogenes Cook; experiment: Antibacterial activity, agar-dilution MIC, organism No. 4; assay type: cell-based; details: Streptococcus pyogenes; Organism No. 4, bouillon-agar; read-out: Minimum Inhibitory Concentration
Procedure, shortened: as §1

[25] = system: Escherichia coli K12 C600 IAM 1264; experiment: Antibacterial activity, agar-dilution MIC, organism No. 6; assay type: cell-based; details: Escherichia coli, IAM1264; Organism No. 6, bouillon-agar; read-out: Minimum Inhibitory Concentration
Procedure, shortened: as §1

[26] = system: Escherichia coli NIHJ-JC-2; experiment: Antibacterial activity, agar-dilution MIC, organism No. 5; assay type: cell-based; details: Escherichia coli, NIHJJC2; Organism No. 5, bouillon-agar; read-out: Minimum Inhibitory Concentration
Procedure, shortened: as §1

[27] = system: Pseudomonas aeruginosa IFO 3445; experiment: Antibacterial activity, agar-dilution MIC, organism No. 15; assay type: cell-based; details: Pseudomonas aeruginosa, IFO3445; Organism No. 15, bouillon-agar; read-out: Minimum Inhibitory Concentration
Procedure, shortened: as §1

SMILES: [C-]#[N+]C12CC3(/C=C/C(=O)OCc4cc([N+](=O)[O-])ccc4O)OC3C1O2 (stereo not shown) [Compound No. 17]
- MIC [1]: > 200 µg/mL
- MIC [2]: > 200 µg/mL
- MIC [3]: > 200 µg/mL
- MIC [4]: > 200 µg/mL
- MIC [5]: > 100 µg/mL
- MIC [6]: > 200 µg/mL
- MIC [7]: > 200 µg/mL
- MIC [8]: > 200 µg/mL
- MIC (Enterobacter cloacae 963): > 200 µg/mL
- MIC [9]: 200 µg/mL (≈ 581 µM)
- MIC [10]: > 200 µg/mL
- MIC [11]: > 200 µg/mL
- MIC (Salmonella typhi 901): 200 µg/mL (≈ 581 µM)
- MIC [12]: > 200 µg/mL
- MIC [13]: > 100 µg/mL
- MIC [14]: > 200 µg/mL
- MIC [15]: > 200 µg/mL
- MIC [16]: > 200 µg/mL
- MIC [17]: > 200 µg/mL
- MIC [18]: > 200 µg/mL
- MIC [19]: > 200 µg/mL
- MIC [20]: > 200 µg/mL
- MIC (Proteus vulgaris OX-19): > 200 µg/mL
- MIC [21]: > 200 µg/mL
- MIC [22]: 100 µg/mL
- stability (in words) [23]: tendency thereof of decomposition in a non-solvent state
- MIC (Proteus vulgaris HX-19): > 200 µg/mL
- MIC [24]: > 200 µg/mL
- MIC [25]: > 200 µg/mL
- MIC [26]: > 200 µg/mL
- MIC [27]: > 200 µg/mL

SMILES: [C-]#[N+]C12CC3(/C=C/C(=O)NOCc4ccccc4)OC3C1O2 (stereo not shown) [compound 82]
- MIC [1]: < 0.05 µg/mL
- MIC [2]: 1.56 µg/mL (≈ 5.23 µM)
- MIC [3]: 0.78 µg/mL (≈ 2.61 µM)
- MIC [4]: > 200 µg/mL
- MIC [5]: 0.39 µg/mL (≈ 1.31 µM)
- MIC [6]: > 200 µg/mL
- MIC [7]: 0.39 µg/mL (≈ 1.31 µM)
- MIC [8]: 0.2 µg/mL (≈ 0.67 µM)
- MIC (Enterobacter cloacae 963): > 200 µg/mL
- MIC [9]: 12.5 µg/mL (≈ 41.9 µM)
- MIC [10]: > 200 µg/mL
- MIC [11]: > 200 µg/mL
- MIC (Salmonella typhi 901): 0.78 µg/mL (≈ 2.61 µM)
- MIC [12]: > 200 µg/mL
- MIC [13]: 3.13 µg/mL (≈ 10.5 µM)
- MIC [14]: 0.78 µg/mL (≈ 2.61 µM)
- MIC [15]: 0.78 µg/mL (≈ 2.61 µM)
- MIC [16]: 6.25 µg/mL (≈ 21 µM)
- MIC [17]: < 0.05 µg/mL
- MIC [18]: > 200 µg/mL
- MIC [19]: 0.78 µg/mL (≈ 2.61 µM)
- MIC [20]: 1.56 µg/mL (≈ 5.23 µM)
- MIC (Proteus vulgaris OX-19): 0.2 µg/mL (≈ 0.67 µM)
- MIC [21]: 6.25 µg/mL (≈ 21 µM)
- MIC [22]: < 0.2 µg/mL
- MIC (Proteus vulgaris HX-19): 0.1 µg/mL (≈ 0.335 µM)
- MIC [24]: 0.78 µg/mL (≈ 2.61 µM)
- MIC [25]: 12.5 µg/mL (≈ 41.9 µM)
- MIC [26]: 12.5 µg/mL (≈ 41.9 µM)
- MIC [27]: > 200 µg/mL

SMILES: [C-]#[N+]C12CC3(/C=C/C(=O)O)OC3C1O2 (stereo not drawn) [α substituted acrylic acid, β-(4-isocyano-1,2-3,4-diepoxycyclopentyl)acrylic acid, reference compound]
- MIC [1]: 25 µg/mL (≈ 129 µM)
- MIC [2]: 6.25 µg/mL (≈ 32.4 µM)
- MIC [3]: 12.5 µg/mL (≈ 64.7 µM)
- MIC [4]: 200 µg/mL (≈ 1040 µM)
- MIC [5]: 12.5 µg/mL (≈ 64.7 µM)
- MIC [6]: 200 µg/mL (≈ 1040 µM)
- MIC [7]: 50 µg/mL (≈ 259 µM)
- MIC [8]: 50 µg/mL (≈ 259 µM)
- MIC (Enterobacter cloacae 963): 100 µg/mL (≈ 518 µM)
- MIC [9]: 12.5 µg/mL (≈ 64.7 µM)
- MIC [10]: 50 µg/mL (≈ 259 µM)
- MIC [11]: 200 µg/mL (≈ 1040 µM)
- MIC (Salmonella typhi 901): 6.25 µg/mL (≈ 32.4 µM)
- MIC [12]: 12.5 µg/mL (≈ 64.7 µM)
- MIC [13]: 25 µg/mL (≈ 129 µM)
- MIC [14]: 12.5 µg/mL (≈ 64.7 µM)
- MIC [15]: 3.13 µg/mL (≈ 16.2 µM)
- MIC [16]: 12.5 µg/mL (≈ 64.7 µM)
- MIC [17]: 25 µg/mL (≈ 129 µM)
- MIC [18]: 50 µg/mL (≈ 259 µM)
- MIC [19]: 12.5 µg/mL (≈ 64.7 µM)
- MIC [20]: 50 µg/mL (≈ 259 µM)
- MIC (Proteus vulgaris OX-19): 6.25 µg/mL (≈ 32.4 µM)
- MIC [21]: 25 µg/mL (≈ 129 µM)
- MIC [22]: < 0.2 µg/mL
- MIC (Proteus vulgaris HX-19): 6.25 µg/mL (≈ 32.4 µM)
- MIC [24]: 25 µg/mL (≈ 129 µM)
- MIC [25]: 12.5 µg/mL (≈ 64.7 µM)
- MIC [26]: 12.5 µg/mL (≈ 64.7 µM)
- MIC [27]: 200 µg/mL (≈ 1040 µM)
